Data reported in US20260217767A1, “NOVEL A4B7 THIOETHER PEPTIDE DIMER ANTAGONISTS” (Protagonist Therapeutics, Inc., priority 2014, published 2026).
*1 amine or outer side, *2 acyl side, *3 side chain or, on linkers, in order; H or OH if unused. Where a SMILES comes first, the peptide text is derived from it. Bridges are numbered along the chain shown (N, C = ends). Roman numbers before positions name the chains, in order. [ ]: non-standard residue; d: D form. Diglycolyl = O=C(COCC(=O)[*:2])[*:1]; NMeR = CN[C@@H](CCCNC(=N)N)C(=O)O; β3hE = N[C@@H](CCC(=O)O)CC(=O)O; X1 = O=C(c1ccccc1C[*:2])[*:1]; Pen = CC(C)(S)[C@H](N)C(=O)O

Assays:
[1] = Simulated Intestinal Fluid (SIF) Stability Assay; assay type: in vitro ADME; conditions: 37° C.; for half-life: simulated gi fluid, porcine pancreatin; for half-life at 22 μM: pig, simulated intestinal fluid (SIF) with 1% porcine pancreatin, pH 6.5, porcine pancreatin
Method in brief: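 Peptide at 22 μM final was incubated at 37° C in blank FaSSIF pH 6.5 with 1% porcine pancreatin. Timed samples were quenched in acetonitrile/methanol/formic acid with internal standard and analysed by LC-MS/MS. Half-lives came from first-order exponential fits of percent remaining.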

[2] = Simulated Gastric Fluid (SGF) Stability Assay; assay type: in vitro ADME; conditions: pH 2, 37° C.; for half-life: simulated gi fluid, porcine pepsin; for half-life at 20 μM: pig, simulated gastric fluid (SGF) with porcine pepsin
Procedure: Simulated Gastric Fluid (SGF) Stability Assays
Studies were carried out in simulated gastric fluid (SGF) to evaluate intestinal stability of the peptide molecules of the instant invention. SGF was prepared by adding 20 mg NaCl, 32 mg porcine pepsin (MP Biochemicals, catalog 02102599), and 70 μl HCl to 10 ml water (final pH=2). Aliquots of SGF (0.5 ml each) were pre-warmed at 37° C. To start the reaction, 1 μl of peptide stock solution (10 mM in DMSO) was added to 0.5 ml SGF and thoroughly mixed such that the final peptide concentration was 20 μM. The reactions were incubated at 37° C. with gentle shaking. At each time point (0, 15, 30, 60 min) 50 μl aliquots were removed and added to 200 μl acetonitrile containing 0.1% formic acid to quench the reaction. Samples are stored at 4° C. until the end of the experiment and centrifuged at 10,000 rpm for 5 minutes. Aliquots of the supernatant were removed, diluted 1:1 into distilled water containing internal standard, and analyzed by LCMS/MS. Percent remaining at each timepoint was calculated based on the peak area response ratio of test to compound to internal standard. Time 0 was set to 100%, and all later timepoints were calculated relative to time 0. Half-lives were calculated by fitting to a first-order exponential decay equation using GraphPad.

[3] = target: T1, α4β1 (Homo sapiens, UniProt P05556+P13612); assay: α4β1-VCAM Competition ELISA; assay type: binding; conditions: thioether peptide dimers, Table 7; read-out: ELISA A4B1
T1 construct: purchased R&D Systems 5668-A4
T1 sequence (P13612 34-977 limits assumed): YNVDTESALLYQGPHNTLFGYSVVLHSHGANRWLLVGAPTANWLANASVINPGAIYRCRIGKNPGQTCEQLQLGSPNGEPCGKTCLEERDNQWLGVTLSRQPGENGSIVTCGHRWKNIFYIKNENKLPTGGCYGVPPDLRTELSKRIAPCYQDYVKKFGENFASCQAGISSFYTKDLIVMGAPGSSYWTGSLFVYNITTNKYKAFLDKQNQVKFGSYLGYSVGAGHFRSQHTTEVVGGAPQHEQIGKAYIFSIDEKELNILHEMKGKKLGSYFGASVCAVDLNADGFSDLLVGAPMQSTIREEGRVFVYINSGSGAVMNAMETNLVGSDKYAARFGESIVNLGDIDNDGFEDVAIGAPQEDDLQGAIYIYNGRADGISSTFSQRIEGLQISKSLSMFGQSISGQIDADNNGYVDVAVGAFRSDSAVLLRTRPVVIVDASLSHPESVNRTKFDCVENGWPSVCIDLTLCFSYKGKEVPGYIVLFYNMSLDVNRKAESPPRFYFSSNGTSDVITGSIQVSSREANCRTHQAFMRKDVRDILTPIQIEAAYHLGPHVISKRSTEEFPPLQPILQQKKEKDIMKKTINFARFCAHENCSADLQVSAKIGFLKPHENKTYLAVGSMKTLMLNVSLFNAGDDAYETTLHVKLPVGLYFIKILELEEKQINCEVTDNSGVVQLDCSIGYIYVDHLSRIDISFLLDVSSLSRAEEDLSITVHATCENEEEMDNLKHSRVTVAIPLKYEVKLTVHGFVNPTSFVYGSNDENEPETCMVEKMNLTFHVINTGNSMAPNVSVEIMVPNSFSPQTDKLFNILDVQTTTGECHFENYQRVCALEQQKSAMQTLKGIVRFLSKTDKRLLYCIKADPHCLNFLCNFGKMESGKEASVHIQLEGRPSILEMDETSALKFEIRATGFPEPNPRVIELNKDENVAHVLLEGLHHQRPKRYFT
T1 sequence (P05556 21-728 limits assumed): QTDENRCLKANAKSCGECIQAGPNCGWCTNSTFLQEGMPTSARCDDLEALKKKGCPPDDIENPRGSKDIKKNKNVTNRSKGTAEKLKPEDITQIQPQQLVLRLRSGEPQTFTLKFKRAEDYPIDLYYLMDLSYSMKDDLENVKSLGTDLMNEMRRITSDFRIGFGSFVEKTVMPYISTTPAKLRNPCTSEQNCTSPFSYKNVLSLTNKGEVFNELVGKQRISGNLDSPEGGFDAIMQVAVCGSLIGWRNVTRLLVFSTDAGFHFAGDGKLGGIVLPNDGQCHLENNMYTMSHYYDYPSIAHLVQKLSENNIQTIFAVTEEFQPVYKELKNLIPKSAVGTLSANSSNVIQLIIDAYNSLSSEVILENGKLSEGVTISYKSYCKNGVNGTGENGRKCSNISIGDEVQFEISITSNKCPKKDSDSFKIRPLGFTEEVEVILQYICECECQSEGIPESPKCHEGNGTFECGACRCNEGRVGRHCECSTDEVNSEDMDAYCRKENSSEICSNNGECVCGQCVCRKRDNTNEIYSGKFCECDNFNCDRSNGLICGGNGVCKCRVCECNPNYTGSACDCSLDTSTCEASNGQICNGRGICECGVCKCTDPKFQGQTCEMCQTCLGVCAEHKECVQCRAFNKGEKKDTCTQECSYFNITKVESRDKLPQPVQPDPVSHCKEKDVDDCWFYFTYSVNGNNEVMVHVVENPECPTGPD
Procedure: α4β1-VCAM Competition ELISA
A Nunc MaxiSorp plate was coated with rh VCAM-1/CD106 Fc chimera (R&D #862-VC) at 400 ng/well in 50 ul per well in 1×PBS and incubated overnight at 4° C. The solution was removed by shaking and then blocked with 250 ul of 1% BSA in 1×PBS per well. The wells were then incubated at room temperature for 1 hr with shaking. Each well was then washed once with wash buffer (50 mM Tris-HCl pH7.6, 100 mM NaCL, 1 mM MnCl2 or MgCl2, 0.05% Tween-20). 25 ul of serial dilutions of peptides starting at 200 μM in assay buffer (Assay buffer: 50 mM Tris-HCl pH7.6, 100 mM NaCl, 1 mM MnCl2 or MgCl2, 0.05% Tween-20) was added to each well. Additionally, 25 μl of α4β1 (R&D Systems #5668-A4) was added to each well at a fixed concentration of 120 nM. The final peptide and α4β1 concentrations were 100 μM and 60 nM, respectively. The plates were then incubated at 37° C. for 2 hr. The solution was then removed by shaking and each well was washed three times with wash buffer. 50 ul of 9F10 antibody at 4 ug/ml (purified mouse anti-human CD49d, BD Bioscience Cat #555502) was then added to each well, and the plate was incubated at room temperature for Ihr with shaking. The solution was again removed by shaking, and each well was washed three times with wash buffer. 50 μl of peroxidase-conjugated AffiniPure Goat anti-mouse IgG (Jackson immune research cat #115-035-003) diluted in 1:5000 in assay buffer was added to each well. The plate was incubated at room temperature for 30 min with shaking. Each well was then washed 3 times with wash buffer. 100 ul of TMB was then added to each well and closely observe during developing time. The reaction was stepped with 2N H2SO4 and absorbance was read at 450 nm.

[4] = target: Jurkat E6.1 cells (Homo sapiens, UniProt P05556+P13612); assay: α4β1-VCAM Cell Adhesion Assay; assay type: cell-based; conditions: thioether peptide dimers, Table 7; read-out: Cell Adhesion A4B1
Sequence of Jurkat E6.1 cells (P13612 34-1032): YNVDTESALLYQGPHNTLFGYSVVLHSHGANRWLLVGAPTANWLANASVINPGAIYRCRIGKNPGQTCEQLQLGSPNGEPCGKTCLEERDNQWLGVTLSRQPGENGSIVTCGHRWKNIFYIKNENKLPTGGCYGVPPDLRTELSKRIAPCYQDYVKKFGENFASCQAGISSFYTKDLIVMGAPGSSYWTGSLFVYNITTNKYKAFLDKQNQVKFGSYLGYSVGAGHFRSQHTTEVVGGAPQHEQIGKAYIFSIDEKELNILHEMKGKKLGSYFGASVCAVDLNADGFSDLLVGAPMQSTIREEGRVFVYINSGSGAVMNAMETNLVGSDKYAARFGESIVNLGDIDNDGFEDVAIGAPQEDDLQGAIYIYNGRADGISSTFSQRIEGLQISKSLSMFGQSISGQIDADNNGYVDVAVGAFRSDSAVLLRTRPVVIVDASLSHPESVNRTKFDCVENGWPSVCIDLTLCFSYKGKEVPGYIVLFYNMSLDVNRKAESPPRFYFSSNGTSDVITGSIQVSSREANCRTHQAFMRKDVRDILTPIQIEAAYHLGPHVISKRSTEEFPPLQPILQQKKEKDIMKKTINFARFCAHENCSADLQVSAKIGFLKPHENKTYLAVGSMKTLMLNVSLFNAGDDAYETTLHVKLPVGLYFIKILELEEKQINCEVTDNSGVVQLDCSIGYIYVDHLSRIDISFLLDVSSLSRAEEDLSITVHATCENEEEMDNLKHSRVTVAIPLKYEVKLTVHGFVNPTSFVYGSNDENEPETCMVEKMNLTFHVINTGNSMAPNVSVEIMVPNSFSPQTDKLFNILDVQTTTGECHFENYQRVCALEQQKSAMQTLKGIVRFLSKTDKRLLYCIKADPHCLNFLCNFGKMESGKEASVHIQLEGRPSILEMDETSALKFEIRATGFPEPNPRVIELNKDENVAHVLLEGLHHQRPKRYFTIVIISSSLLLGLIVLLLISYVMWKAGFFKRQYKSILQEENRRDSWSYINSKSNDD
Sequence of Jurkat E6.1 cells (P05556 21-798): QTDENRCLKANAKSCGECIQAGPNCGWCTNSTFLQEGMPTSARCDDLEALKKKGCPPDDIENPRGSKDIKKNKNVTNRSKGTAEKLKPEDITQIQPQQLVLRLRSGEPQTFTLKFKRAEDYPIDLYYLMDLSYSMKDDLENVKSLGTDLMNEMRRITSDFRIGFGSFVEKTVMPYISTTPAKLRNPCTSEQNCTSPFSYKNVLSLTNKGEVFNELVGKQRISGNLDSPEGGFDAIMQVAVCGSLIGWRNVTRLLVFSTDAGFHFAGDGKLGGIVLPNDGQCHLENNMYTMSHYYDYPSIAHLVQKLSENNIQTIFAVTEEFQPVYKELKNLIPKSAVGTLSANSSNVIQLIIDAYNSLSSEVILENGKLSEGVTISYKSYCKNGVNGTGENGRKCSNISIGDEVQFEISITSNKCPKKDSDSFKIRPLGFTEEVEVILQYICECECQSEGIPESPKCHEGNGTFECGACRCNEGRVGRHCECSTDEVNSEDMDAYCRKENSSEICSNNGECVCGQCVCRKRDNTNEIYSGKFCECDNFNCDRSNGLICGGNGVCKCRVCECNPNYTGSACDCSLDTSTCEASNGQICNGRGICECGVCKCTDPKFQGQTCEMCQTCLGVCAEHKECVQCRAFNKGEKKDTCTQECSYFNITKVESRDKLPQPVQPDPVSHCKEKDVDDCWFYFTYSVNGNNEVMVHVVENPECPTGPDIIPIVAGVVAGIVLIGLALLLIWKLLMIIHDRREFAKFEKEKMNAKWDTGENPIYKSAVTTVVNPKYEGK
Procedure: α4β1-VCAM Cell Adhesion Assay
Jurkat E6.1 cells (Sigma #88042803) were cultured in RPMI 1640 HEPES medium (Invitrogen #22400-089) supplemented with 10% serum (Fetal Bovine Serum, Invitrogen #16140-071), 1 mM sodium pyruvate (Invitrogen #11360-070), 2 mM L-glutamine (Invitrogen #25030-081) and Penicillin-Streptomycin (Invitrogen #15140-122) at 100 units of penicillin and 100 μg of streptomycin per ml. The cells were washed two times in DMEM medium (ATCC #30-2002) supplemented with 0.1% BSA, 10 mM HEPES pH 7 and 1 mM MnCl2. The cells were re-suspended in supplemented DMEM medium at a density of 4×10^6 cells/ml.
A Nunc MaxiSorp plate was coated with rh VCAM-1/CD106 Fc chimera (R&D #862-VC) at 400 ng per well in 50 μl per well in 1×PBS and incubated at 4° C. overnight. The solution was then removed by shaking, blocked with 250 μl per well PBS containing 1% BSA, and incubated at 37° C. for 1 hr. The solution was removed by shaking. Peptides were diluted by serial dilution in a final volume of 50 μl per well (2× concentration). To each well, 50 μl of cells (200,000 cells) were added and the plate was incubated at 37° C., 5% CO2 for 30-45 min to allow cell adhesion. The wells were washed manually three times (100 μl per wash) with supplemented DMEM. After the final wash, 100 μl/well of supplemented DMEM and 10 ul/well of MTT reagent (ATTC cat #30-1010K) were added. The plate was incubated at 37° C., 5% CO2 for 2-3 hrs until a purple precipitate is visible. 100 ul of Detergent Reagent (ATTC cat #30-1010K) is added to each well. The plate was covered from the light, wrapped in Parafilm to prevent evaporation, and left overnight at room temperature in the dark. The plate was shaken for 5 min and the absorbance at 570 nm is measured. To calculate the dose response, the absorbance value of control wells not containing cells was subtracted from each test well.

half-life ([1]; dimers, Table 7) [h]	half-life ([2]; dimers, Table 7) [h]	Structure (SMILES)	half-life ([1]; monomers, Table 6) [h]	half-life ([2]; monomers, Table 6) [h]	half-life at 22 μM ([1]; dimers, Table 7) [h]	half-life at 20 μM ([2]; dimers, Table 7) [h]	IC50 [3] [nM]	IC50 [4] [nM]
–	–	CC(C)C[C@@H]1NC(=O)[C@H]([C@@H](C)O)NC(=O)[C@H](CC(=O)O)NC(=O)[C@H](CO)NC(=O)[C@H](CCCNC(=N)N)N(C)C(=O)c2ccccc2CSC(C)(C)[C@@H](C(=O)N[C@@H](Cc2c[nH]c3ccccc23)C(=O)N[C@H](CCC(=O)O)C(N)=O)NC1=O [compound 97] (HELM PEPTIDE1{[meR].S.D.T.L.[Pen].W.[dE].[am]}|CHEM1{[O=C(c1ccccc1C[*:2])[*:1]]}$PEPTIDE1,CHEM1,1:R1-1:R1|PEPTIDE1,CHEM1,6:R3-1:R2$$$V2.0)	> 3	> 3	–	–	–	–
> 3	> 3	CC(C)C[C@@H]1NC(=O)[C@H]([C@@H](C)O)NC(=O)[C@H](CC(=O)O)NC(=O)[C@H](CO)NC(=O)[C@H](CCCNC(=N)N)N(C)C(=O)c2ccccc2CSC(C)(C)[C@@H](C(=O)N[C@@H](Cc2c[nH]c3ccccc23)C(=O)N[C@H](CCC(=O)O)C(=O)N[C@H](CCCCN)C(N)=O)NC1=O [compound 150] (HELM PEPTIDE1{[meR].S.D.T.L.[Pen].W.[dE].[dK].[am]}|CHEM1{[O=C(c1ccccc1C[*:2])[*:1]]}$PEPTIDE1,CHEM1,1:R1-1:R1|PEPTIDE1,CHEM1,6:R3-1:R2$$$V2.0)	–	–	–	–	–	–
–	–	CC(C)C[C@@H]1NC(=O)[C@H]([C@@H](C)O)NC(=O)[C@H](CC(=O)O)NC(=O)[C@H](CO)NC(=O)[C@H](CCCNC(=N)N)N(C)C(=O)c2ccccc2CSC(C)(C)[C@@H](C(=O)N[C@@H](Cc2c[nH]c3ccccc23)C(=O)N[C@@H](CCC(=O)O)C(=O)N(C)[C@H](CCCCN)C(N)=O)NC1=O [compound 152] (HELM PEPTIDE1{[meR].S.D.T.L.[Pen].W.E.[CN([C@H](CCCCN)C(=O)[*:2])[*:1]].[am]}|CHEM1{[O=C(c1ccccc1C[*:2])[*:1]]}$PEPTIDE1,CHEM1,1:R1-1:R1|PEPTIDE1,CHEM1,6:R3-1:R2$$$V2.0)	–	–	> 3	> 1	25 to 100	> 100000
–	–	CC(C)C[C@@H]1NC(=O)[C@H]([C@@H](C)O)NC(=O)[C@H](CC(=O)O)NC(=O)[C@H](CO)NC(=O)[C@H](CCCNC(=N)N)N(C)C(=O)c2ccccc2CSC(C)(C)[C@@H](C(=O)N[C@@H](Cc2ccccc2)C(=O)N[C@@H](CCC(=O)O)CC(=O)N[C@H](CCCCN)C(N)=O)NC1=O [compound 164] (HELM PEPTIDE1{[meR].S.D.T.L.[Pen].F.[O=C(O)CC[C@@H](CC(=O)[*:2])N[*:1]].[dK].[am]}|CHEM1{[O=C(c1ccccc1C[*:2])[*:1]]}$PEPTIDE1,CHEM1,1:R1-1:R1|PEPTIDE1,CHEM1,6:R3-1:R2$$$V2.0)	–	–	> 3	> 1	25 to 100	> 100000
–	–	CC(C)C[C@@H]1NC(=O)[C@H]([C@@H](C)O)NC(=O)[C@H](CC(=O)O)NC(=O)[C@H](CO)NC(=O)[C@H](CCCNC(=N)N)N(C)C(=O)c2ccccc2CSC(C)(C)[C@@H](C(=O)N[C@@H](Cc2ccc(O)cc2)C(=O)N[C@@H](CCC(=O)O)CC(=O)N[C@H](CCCCNC(=O)COCC(=O)NCCCC[C@@H](NC(=O)C[C@H](CCC(=O)O)NC(=O)[C@H](Cc2ccc(O)cc2)NC(=O)[C@H]2NC(=O)[C@H](CC(C)C)NC(=O)[C@H]([C@@H](C)O)NC(=O)[C@H](CC(=O)O)NC(=O)[C@H](CO)NC(=O)[C@H](CCCNC(=N)N)N(C)C(=O)c3ccccc3CSC2(C)C)C(N)=O)C(N)=O)NC1=O [compound 165] (I: [NMeR]SDTL[Pen]Y[β3hE][dK]-NH2 / II: [NMeR]SDTL[Pen]Y[β3hE][dK]-NH2; linker I:9-II:9 via Diglycolyl; linker I:N-I:6, II:N-II:6 via X1)	–	–	> 3	> 1	–	–
–	–	CC(C)C[C@@H]1NC(=O)[C@H]([C@@H](C)O)NC(=O)[C@H](CC(=O)O)NC(=O)[C@H](CO)NC(=O)[C@H](CCCNC(=N)N)N(C)C(=O)c2ccccc2CSC(C)(C)[C@@H](C(=O)N[C@@H](Cc2ccc(O)cc2)C(=O)N[C@H](CCC(=O)O)C(=O)N[C@H](CCCCN)C(N)=O)NC1=O [compound 169] (HELM PEPTIDE1{[meR].S.D.T.L.[Pen].Y.[dE].[dK].[am]}|CHEM1{[O=C(c1ccccc1C[*:2])[*:1]]}$PEPTIDE1,CHEM1,1:R1-1:R1|PEPTIDE1,CHEM1,6:R3-1:R2$$$V2.0)	–	–	> 3	> 3	100 to 1000	> 100000
